From patent US9556201B2, “Bicyclic pyridines and analogs as sirtuin modulators” (GLAXOSMITHKLINE LLC, priority 2009, dated 2017)

How the values were obtained:
TNF = TNF IC50 (column of Table 1; method not shown); format: cell-based
SIRT1 = target: T1, SIRT1 (Homo sapiens, UniProt Q96EB6); experiment: Mass spectrometry based assay to identify modulators of SIRT1 activity (deacetylation of p53-based acetylated peptide substrate); format: biochemical; details: for Emax: 25 min, read-out: % FOLD ACT. (percent maximum fold activation); for Emax / EC1.5: SIRT1 activation
T1 sequence (Q96EB6 1-747): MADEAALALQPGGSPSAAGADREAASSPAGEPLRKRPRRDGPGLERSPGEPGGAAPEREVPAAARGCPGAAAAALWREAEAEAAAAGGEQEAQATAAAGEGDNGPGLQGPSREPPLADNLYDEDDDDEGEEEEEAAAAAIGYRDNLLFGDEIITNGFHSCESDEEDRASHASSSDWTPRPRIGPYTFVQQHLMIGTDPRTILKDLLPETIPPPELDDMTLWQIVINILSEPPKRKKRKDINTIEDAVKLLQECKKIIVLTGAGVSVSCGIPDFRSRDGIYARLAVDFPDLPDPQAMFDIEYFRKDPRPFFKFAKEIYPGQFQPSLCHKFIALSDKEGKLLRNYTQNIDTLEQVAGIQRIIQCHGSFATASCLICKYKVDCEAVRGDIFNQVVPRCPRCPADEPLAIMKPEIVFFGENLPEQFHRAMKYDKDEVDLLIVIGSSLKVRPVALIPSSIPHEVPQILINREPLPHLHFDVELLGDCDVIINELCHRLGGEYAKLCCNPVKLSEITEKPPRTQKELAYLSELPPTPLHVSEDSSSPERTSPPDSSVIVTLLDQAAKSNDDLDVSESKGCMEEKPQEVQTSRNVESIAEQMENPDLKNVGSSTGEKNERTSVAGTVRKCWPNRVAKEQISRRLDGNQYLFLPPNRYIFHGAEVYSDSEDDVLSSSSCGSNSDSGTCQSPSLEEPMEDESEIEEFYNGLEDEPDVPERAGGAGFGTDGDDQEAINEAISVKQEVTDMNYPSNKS
In short: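 His-tagged human SIRT1 (10 nM, E. coli) incubated 25 min at 25 °C with […] p53-derived acetylated 5TMR peptide and 120 μM βNAD+ in pH 8 Tris-acetate buffer, then formic acid-stopped. Mass spectrometry quantifies acetylated vs deacetylated peptide; nicotinamide and DMSO controls.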

Cc1cc(NC(=O)N2CCOc3ccc(-c4cccc(C(F)(F)F)c4)nc32)ccn1 [Compound 548]
IC50 (TNF): ≥ 20 µM
Emax (SIRT1): > 200%
EC1.5 (SIRT1): A (EC1.5<1.0 μM)

O=C(Nc1ccnc(N2CCCC2)c1)N1CCOc2ccc(-c3cccc(C(F)(F)F)c3)nc21 [Compound 508]
IC50 (TNF): ≥ 20 µM
Emax (SIRT1): > 200%
EC1.5 (SIRT1): A (EC1.5<1.0 μM)

Cc1cc(-c2cccc(Cl)c2)nc2c1OCCN2C(=O)Nc1cccc(OCC(O)CO)n1 (centres unmarked) [Compound 691]
IC50 (TNF): < 20 µM
Emax (SIRT1): > 200%
EC1.5 (SIRT1): A (EC1.5<1.0 μM)

CN1CCN(C(=O)Nc2ccncn2)c2nc(-c3cccc(C(F)(F)F)c3)ccc21 [Compound 535]
IC50 (TNF): ≥ 20 µM
Emax (SIRT1): > 200%
EC1.5 (SIRT1): A (EC1.5<1.0 μM)

Cc1cncc(NC(=O)N2CCOc3c(C)cc(-c4cccc(C(F)(F)F)c4)nc32)c1 [Compound 670]
IC50 (TNF): ≥ 20 µM
Emax (SIRT1): > 200%
EC1.5 (SIRT1): A (EC1.5<1.0 μM)

Cc1cc(NC(=O)N2CCN(C)c3ccc(-c4cccc(C(F)(F)F)c4)nc32)cc(C)n1 [Compound 532]
IC50 (TNF): ≥ 20 µM
Emax (SIRT1): ≤ 200%
EC1.5 (SIRT1): B (EC1.5 1-25 μM)

Cc1cc(NC(=O)N2CCCOc3ccc(-c4cccc(N5CCCC5)c4)nc32)ccn1 [Compound 614]
IC50 (TNF): ≥ 20 µM
Emax (SIRT1): > 200%
EC1.5 (SIRT1): A (EC1.5<1.0 μM)

Cc1cc(NC(=O)N2CCOc3c(C)cc(-c4cccc(Cl)c4)nc32)cc(C)n1 [Compound 689]
IC50 (TNF): ≥ 20 µM
Emax (SIRT1): > 200%
EC1.5 (SIRT1): A (EC1.5<1.0 μM)

Cc1cc(C)nc(NC(=O)N2CCCc3ccc(-c4cccc(Cl)c4)nc32)c1 [Compound 654]
IC50 (TNF): ≥ 20 µM
Emax (SIRT1): > 200%
EC1.5 (SIRT1): A (EC1.5<1.0 μM)

Cc1csc(NC(=O)N2CCN(C)c3ccc(-c4cccc(C(F)(F)F)c4)nc32)n1 [Compound 533]
IC50 (TNF): ≥ 20 µM
Emax (SIRT1): > 200%
EC1.5 (SIRT1): A (EC1.5<1.0 μM)

Cc1cc(C)nc(NC(=O)N2CCCc3ccc(-c4cccc(F)c4)nc32)c1 [Compound 664]
IC50 (TNF): ≥ 20 µM
Emax (SIRT1): > 200%
EC1.5 (SIRT1): A (EC1.5<1.0 μM)

Cc1cc(NC(=O)N2CC(C)(C)Oc3ccc(-c4cccc(F)c4)nc32)cc(C)n1 [Compound 592]
IC50 (TNF): ≥ 20 µM
Emax (SIRT1): > 200%
EC1.5 (SIRT1): A (EC1.5<1.0 μM)

Cc1cncc(NC(=O)N2CC(C)(C)Oc3ccc(-c4cccc(Cl)c4)nc32)c1 [Compound 600]
IC50 (TNF): < 20 µM
Emax (SIRT1): > 200%
EC1.5 (SIRT1): A (EC1.5<1.0 μM)

Cc1cc(-c2cccc(C(F)(F)F)c2)nc2c1OCCN2C(=O)Nc1ccncc1 [Compound 662]
IC50 (TNF): < 20 µM
Emax (SIRT1): > 200%
EC1.5 (SIRT1): A (EC1.5<1.0 μM)

CN1CCN(C(=O)Nc2cccnn2)c2nc(-c3cccc(C(F)(F)F)c3)ccc21 [Compound 537]
IC50 (TNF): ≥ 20 µM
Emax (SIRT1): > 200%
EC1.5 (SIRT1): A (EC1.5<1.0 μM)

Cc1cc(NC(=O)N2CC(C)(C)Oc3ccc(-c4cccc(Cl)c4)nc32)cc(C)n1 [Compound 602]
IC50 (TNF): ≥ 20 µM
Emax (SIRT1): > 200%
EC1.5 (SIRT1): A (EC1.5<1.0 μM)

Cc1csc(NC(=O)N2CC(C)(C)Oc3ccc(-c4cccc(N(C)C)c4)nc32)n1 [Compound 624]
IC50 (TNF): < 20 µM
Emax (SIRT1): > 200%
EC1.5 (SIRT1): A (EC1.5<1.0 μM)

Cc1cncc(NC(=O)N2CC(C)(C)Oc3ccc(-c4cccc(F)c4)nc32)c1 [Compound 591]
IC50 (TNF): < 20 µM
Emax (SIRT1): > 200%
EC1.5 (SIRT1): A (EC1.5<1.0 μM)

O=C(Nc1ccncc1F)N1CCOc2ccc(-c3cccc(C(F)(F)F)c3)nc21 [Compound 549]
IC50 (TNF): ≥ 20 µM
Emax (SIRT1): > 200%
EC1.5 (SIRT1): A (EC1.5<1.0 μM)

Cc1csc(NC(=O)N2CCCOc3ccc(-c4cccc(C(F)(F)F)c4)nc32)n1 [Compound 578]
IC50 (TNF): ≥ 20 µM
Emax (SIRT1): > 200%
EC1.5 (SIRT1): A (EC1.5<1.0 μM)

Cc1csc(NC(=O)N2CC(C)(C)Oc3ccc(-c4cccc(N5CCOCC5)c4)nc32)n1 [Compound 675]
IC50 (TNF): < 20 µM
Emax (SIRT1): > 200%
EC1.5 (SIRT1): A (EC1.5<1.0 μM)

O=C(Nc1ccnc(N2CCC2)c1)N1CCCOc2ccc(-c3cccc(N4CCCC4)c3)nc21 [Compound 611]
IC50 (TNF): < 20 µM
Emax (SIRT1): > 200%
EC1.5 (SIRT1): A (EC1.5<1.0 μM)

O=C(Nc1cccc(CN2CCOCC2)n1)N1CCOc2ccc(-c3cccc(C(F)(F)F)c3)nc21 [Compound 510]
IC50 (TNF): ≥ 20 µM
Emax (SIRT1): > 200%
EC1.5 (SIRT1): A (EC1.5<1.0 μM)

CC1(C)CN(C(=O)Nc2ccncc2)c2nc(-c3cccc(C(F)(F)F)c3)ccc2O1 [Compound 560, 2,2-dimethyl-N-(pyridin-4-yl)-6-(3-(trifluoromethyl)phenyl)-2H-pyrido[3,2-b][1,4]oxazine-4(3H)-carboxamide]
IC50 (TNF): ≥ 20 µM
Emax (SIRT1): > 200%
EC1.5 (SIRT1): A (EC1.5<1.0 μM)

CN1CCN(C(=O)Nc2ccncc2)c2nc(-c3cccc(C(F)(F)F)c3)ccc21 [Compound 531]
IC50 (TNF): < 20 µM
Emax (SIRT1): > 200%
EC1.5 (SIRT1): A (EC1.5<1.0 μM)

O=C(Nc1ccncc1)N1CCOc2ccc(-c3cccc(N4CCCC4)c3)nc21 [Compound 559]
IC50 (TNF): < 20 µM
Emax (SIRT1): > 200%
EC1.5 (SIRT1): A (EC1.5<1.0 μM)

CN(C)c1cccc(-c2ccc3c(n2)N(C(=O)Nc2cncc(F)c2)CC(C)(C)O3)c1 [Compound 623]
IC50 (TNF): ≥ 20 µM
Emax (SIRT1): > 200%
EC1.5 (SIRT1): A (EC1.5<1.0 μM)

O=C(Nc1ccnc(N2CCCC2)c1)N1CCCOc2ccc(-c3cccc(N4CCCC4)c3)nc21 [Compound 612]
IC50 (TNF): < 20 µM
Emax (SIRT1): > 200%
EC1.5 (SIRT1): A (EC1.5<1.0 μM)

Cc1csc(NC(=O)N2CC(C)(C)Oc3ccc(-c4cccc(F)c4)nc32)n1 [Compound 622]
IC50 (TNF): ≥ 20 µM
Emax (SIRT1): > 200%
EC1.5 (SIRT1): A (EC1.5<1.0 μM)

Cc1cc(NC(=O)N2CCOc3ccc(-c4cccc(C(F)(F)F)c4)nc32)cc(C)n1 [Compound 556]
IC50 (TNF): < 20 µM
Emax (SIRT1): > 200%
EC1.5 (SIRT1): A (EC1.5<1.0 μM)

Cc1csc(NC(=O)N2CCOc3c(C)cc(-c4cccc(Cl)c4)nc32)n1 [Compound 684]
IC50 (TNF): ≥ 20 µM
Emax (SIRT1): > 200%
EC1.5 (SIRT1): A (EC1.5<1.0 μM)

O=C(Nc1ccncc1)N1CCOc2ccc(-c3cccc(C(F)(F)F)c3)nc21 [Compound 501]
IC50 (TNF): < 20 µM
Emax (SIRT1): > 200%
EC1.5 (SIRT1): A (EC1.5<1.0 μM)

Cc1cc(-c2cccc(C(F)(F)F)c2)nc2c1OCCN2C(=O)Nc1ccnc(N2CCC2)c1 [Compound 683]
IC50 (TNF): ≥ 20 µM
Emax (SIRT1): > 200%
EC1.5 (SIRT1): A (EC1.5<1.0 μM)

Cc1cc(C)nc(NC(=O)N2CCN(C)c3ccc(-c4cccc(C(F)(F)F)c4)nc32)c1 [Compound 534]
IC50 (TNF): ≥ 20 µM
Emax (SIRT1): ≤ 200%
EC1.5 (SIRT1): A (EC1.5<1.0 μM)

O=C(Nc1ccncc1)N1CCCc2ccc(-c3cccc(F)c3)nc21 [Compound 648]
Emax (SIRT1): > 200%
EC1.5 (SIRT1): A (EC1.5<1.0 μM)

O=C(Nc1ccncc1)N1CCOc2ccc(-c3ccccc3)nc21 [Compound 673]
Emax (SIRT1): > 200%
EC1.5 (SIRT1): A (EC1.5<1.0 μM)

Cn1ccc(NC(=O)N2CCCOc3ccc(-c4cccc(Cl)c4)nc32)n1 [Compound 705]
EC1.5 (concentration giving 1.5-fold activation) (SIRT1): 1 to 25 µM
Emax (SIRT1): > 200%

O=C(Nc1cncc(F)c1)N1CCOc2ccc(-c3cccc(C(F)(F)F)c3)nc21 [Compound 547]
Emax (SIRT1): > 200%
EC1.5 (SIRT1): A (EC1.5<1.0 μM)
